Measurements taken from patent US4454145A, “Nicotinates of alkanediols having hypolipidaemic activity and pharmaceutical compositions containing them” (Alfa Farmaceutici S.p.A., priority 1981, dated 1984).
Like-named read-outs stand apart in the source and are kept apart here.

Columns and labels:
Type in all cases: in vivo, Male Wistar rats
[1] = tested on: hypertriglyceridemia caused by fructose; assay: Test A: decrease of triglycerides content in the serum of rats due to hypertriglyceridemia caused by fructose; conditions: for change in vivo at 50 mg/kg: Rattus norvegicus, po, 72 h, read-out: ΔTGhematic (percent decrease of the hematic triglycerides); for change in vivo at 50 mg/kg / ΔTGhematic (percent decrease of the hematic triglycerides): 50 mg/Kg/os/die, three days, fructose diet; for ED50, Test diet of fructose: Table 3, oral
Description: (A) Determination of the decrease of triglycerides content in the serum of rats due to hypertriglyceridemia caused by fructose.
Male Wistar rats weighing 260±20 g, normally fed, subdivided in groups of 6 animals each, are used. The test lasts three days: in the first day the animals are normally fed but are kept without drinking water; in the second and third day they receive a 20% (w/v) water solution of fructose instead of water; moreover in the second day they are fed by means of a gastric probe with further 4 ml of 50% (w/v) aqueous solution of fructose. […] The animals are sacrificed undr ethereal anaesthesia 4 hours after the treatment of the third day and the blood is drawn by an intracardiacal injection.
The percent decrease of the hematic triglycerides due to the treatment with the compound to be tested is expressed as ΔTGhematic and is represented by the following formula: [formula] TG=triglycerides.

[2] = tested on: total cholesterol in rats fed with hypercholesterolemic diet; assay: Test B: variation of total cholesterol in rats fed with Tensho et al. hypercholesterolemic diet; conditions: Table 3, oral
Description: (B) Determination of the variation of total cholesterol in rats fed with Greenberg […] diet modified according to Tensho et al.
The rats are subdivided in 3 experimental groups:
(1) control group, normally fed;
(2) diet group, fed only with the Tensho diet;
(3) treated group, fed with the Tensho diet and treated with the compounds to be tested.
At the beginning of the eighth day the rats, fasted since the previous evenging, are sacrified under ethereal anaesthesia by means of an intracardiacal injection. […] The percent decrease of the hematic cholesterol is calculated by means of the following formula: [formula] Ch=cholesterol

[3] = tested on: hypertriglyceridemia caused by ethanol; assay: Test C: decrease of triglycerides content in the serum of rats based on hypertriglyceridemia caused by ethanol; conditions: Table 3, oral, ethanol in drinking water
Description: (C) Determination of the decrease of triglycerides content in the serum of rats based on hypertriglyceridemia caused by ethanol. Male Wistar rats weighing 260±20 g, normally fed, are subdivided in experimental groups of 10 animals each: (1) control group, normally fed; (2) diet group, given drinking water containing 10% (v/v) of ethanol since the second day; (3) treated group, given drinking water containing 10% (v/v) of ethanol and treated with the compounds to be tested from the second day. At the beginning of the fourth day, after 18 hours of fast, the animals are sacrificed under ethereal anaesthesia by means of an intracardiacal injection. The dosage of the triglycerides is carried out on the serum using the enzymatic method described by […]. and […]. […] The percent decrease of the triglycerides has been calculated as above.

CC(C)(CO)CCCCCCCC(C)(C)CO [Example 14] was tested, and the change in vivo at 50 mg/kg ([1]; Table 2, acids and alcohols) was -92%.

Work on CCCC(C)(CCCCCCC(C)(CCC)COC(=O)c1cccnc1)COC(=O)c1cccnc1 (stereo not drawn) [Table 1 No. 5, 2,9-dimethyl-2,9-di-n-propyl-1,10-decanediol dinicotinate] yielded a change in vivo at 50 mg/kg ([1]; Table 1, esters) of -90%.

CC(C)(CCCCCCC(C)(C)C(=O)O)C(=O)O [Table 2 No. 5] gave a change in vivo at 50 mg/kg ([1]; Table 2, acids and alcohols) of -91.8%.

CC(C)(CCCCCCCC(C)(C)C(=O)O)C(=O)O [Example 13] showed a change in vivo at 50 mg/kg ([1]; Table 2, acids and alcohols) of -91.8%.

With CCCC(C)(CCCCCCCCC(C)(CCC)C(=O)O)C(=O)O (stereo not drawn) [Example 21] the change in vivo at 50 mg/kg ([1]; Table 2, acids and alcohols) was -64.3%.

CC(C)(CCCCC(C)(C)COC(=O)c1cccnc1)COC(=O)c1cccnc1 [Example 1, 2,2,7,7-Tetramethyl-1,8-octanediol dinicotinate] was tested, and the change in vivo at 50 mg/kg ([1]; Table 1, esters) was -60%.

With CCCC(C)(CO)CCCCCCC(C)(CO)CCC (stereo not drawn) [Table 2 No. 10, 2,9-dimethyl-2,9-di-n-propyl-1,10-decanediol] the change in vivo at 50 mg/kg ([1]; Table 2, acids and alcohols) was -88.3%.

In the case of CC(C)(CCCCCCCCC(C)(C)C(=O)O)C(=O)O [Example 17], the change in vivo at 50 mg/kg ([1]; Table 2, acids and alcohols) is reported as -97.5%.

O=C(O)c1cccnc1 [Nicotinic acid, reference compound] was tested, and the “ED50, Test diet of Tensho” value [2] was 0.3020 mmole/Kg/os/die, the “ED50, Test diet of ethanol” value [3] was 0.4800 mmole/Kg/os/die and the “ED50, Test diet of fructose” value [1] was 0.4760 mmole/Kg/os/die.

CCC(C)(CO)CCCCCCCC(C)(CC)CO (stereo not drawn) [Example 16] gave a change in vivo at 50 mg/kg ([1]; Table 2, acids and alcohols) of -90%.

CCCCC(C)(CCCCCCCCC(C)(CCCC)C(=O)O)C(=O)O (stereo not drawn) [Example 23] was tested, and the change in vivo at 50 mg/kg ([1]; Table 2, acids and alcohols) was -62.4%.

CCCCC(C)(CO)CCCCCCCCC(C)(CO)CCCC (stereo not drawn) [Example 24] was tested, and the change in vivo at 50 mg/kg ([1]; Table 2, acids and alcohols) was -60.2%.

CCC(C)(CCCCCCCC(C)(CC)C(=O)O)C(=O)O (stereo not drawn) [Example 15] showed a change in vivo at 50 mg/kg ([1]; Table 2, acids and alcohols) of -97%.

In the case of CC(C)(CCCCCCCC(C)(C)COC(=O)c1cccnc1)COC(=O)c1cccnc1 [Example 4, 2,2,10,10-Tetramethyl-1,11-undecanediol dinicotinate], the “ED50, Test diet of Tensho” value [2] is reported as 0.0891 mmole/Kg/os/die, the “ED50, Test diet of ethanol” value [3] is reported as 0.0718 mmole/Kg/os/die and the change in vivo at 50 mg/kg ([1]; Table 1, esters) is reported as -92.5%. The “ED50, Test diet of fructose” value [1] was 0.0029 mmole/Kg/os/die.

In the case of CC(C)(CCCCCCCCC(C)(C)COC(=O)c1cccnc1)COC(=O)c1cccnc1 [Example 5, 2,2,11,11-Tetramethyl-1,12-dodecanediol dinicotinate], the “ED50, Test diet of Tensho” value [2] is reported as 0.0880 mmole/Kg/os/die, the “ED50, Test diet of ethanol” value [3] is reported as 0.0707 mmole/Kg/os/die and the change in vivo at 50 mg/kg ([1]; Table 1, esters) is reported as -98%. The “ED50, Test diet of fructose” value [1] was 0.0026 mmole/Kg/os/die.

In the case of CC(C)(CO)CCCCC(C)(C)CO [Table 2 No. 2, 2,2,7,7-tetramethyl-1,8-octanediol], the “ΔTGhematic (percent decrease of the hematic triglycerides)” value ([1]; Table 2, acids and alcohols) is reported as “inactive”.

CC(C)(CCCCCCC(C)(C)COC(=O)c1cccnc1)COC(=O)c1cccnc1 [Example 3, 2,2,9,9-Tetramethyl-1,10-decanediol dinicotinate] was tested, and the “ED50, Test diet of Tensho” value [2] was 0.0900 mmole/Kg/os/die, the “ED50, Test diet of ethanol” value [3] was 0.0727 mmole/Kg/os/die and the change in vivo at 50 mg/kg ([1]; Table 1, esters) was -99%. The “ED50, Test diet of fructose” value [1] was 0.0034 mmole/Kg/os/die.

CCC(C)(CCCCCCCC(C)(CC)COC(=O)c1cccnc1)COC(=O)c1cccnc1 (stereo not drawn) [Table 1 No. 8, 2,10-diethyl-2,10-dimethyl-1,11-undecanediol dinicotinate] was tested, and the change in vivo at 50 mg/kg ([1]; Table 1, esters) was -98%.

Work on CCC(C)(CCCCCCC(C)(CC)C(=O)O)C(=O)O (stereo not drawn) [Example 7, 2,9-Diethyl-2,9-dimethyl-1,10-decanedioic acid] yielded a change in vivo at 50 mg/kg ([1]; Table 2, acids and alcohols) of -82.1%.

For CC(C)(CO)CCCCCCCCC(C)(C)CO [Example 18], the change in vivo at 50 mg/kg ([1]; Table 2, acids and alcohols) was -93.4%.

Work on CC(C)(CCCCCC(C)(C)COC(=O)c1cccnc1)COC(=O)c1cccnc1 [Example 2, 2,2,8,8-Tetramethyl-1,9-nonanediol dinicotinate] yielded a change in vivo at 50 mg/kg ([1]; Table 1, esters) of -80%.

Compound CCCCC(C)(CCCCCCCCC(C)(CCCC)COC(=O)c1cccnc1)COC(=O)c1cccnc1 (stereo not drawn) [Table 1 No. 12, 2,11-di-n-butyl-2,11-dimethyl-1,12-dodecanediol dinicotinate] has a change in vivo at 50 mg/kg ([1]; Table 1, esters) of -59.1%.

CCC(C)(CCCCCCC(C)(CC)COC(=O)c1cccnc1)COC(=O)c1cccnc1 (stereo not drawn) [Table 1 No. 4, 2,9-diethyl-2,9-dimethyl-1,10-decanediol dinicotinate] gave a change in vivo at 50 mg/kg ([1]; Table 1, esters) of -87%.

CCCCC(C)(CCCCCCC(C)(CCCC)C(=O)O)C(=O)O (stereo not drawn) [Table 2 No. 11] was tested, and the change in vivo at 50 mg/kg ([1]; Table 2, acids and alcohols) was -65.4%.

For CCC(C)(CCCCCCCCC(C)(CC)C(=O)O)C(=O)O (stereo not drawn) [Example 19], the change in vivo at 50 mg/kg ([1]; Table 2, acids and alcohols) was -57.4%.

CCC(C)(CO)CCCCCCCCC(C)(CC)CO (stereo not drawn) [Example 20] gave a change in vivo at 50 mg/kg ([1]; Table 2, acids and alcohols) of -50.1%.

With CCC(C)(CCCCCCCCC(C)(CC)COC(=O)c1cccnc1)COC(=O)c1cccnc1 (stereo not drawn) [Table 1 No. 10, 2,11-diethyl-2,11-dimethyl-1,12-dodecanediol dinicotinate] the change in vivo at 50 mg/kg ([1]; Table 1, esters) was -66%.

With CCCC(C)(CO)CCCCCCCCC(C)(CO)CCC (stereo not drawn) [Example 22] the change in vivo at 50 mg/kg ([1]; Table 2, acids and alcohols) was -45.2%.

Work on CCC(C)(CO)CCCCCCC(C)(CC)CO (stereo not drawn) [Example 8, 2,9-Diethyl-2,9-dimethyl-1,10-decanediol] yielded a change in vivo at 50 mg/kg ([1]; Table 2, acids and alcohols) of -81.5%.

In the case of CCCC(C)(CCCCCCCCC(C)(CCC)COC(=O)c1cccnc1)COC(=O)c1cccnc1 (stereo not drawn) [Table 1 No. 11, 2,11-dimethyl-2,11-di-n-propyl-1,12-dodecanediol dinicotinate], the change in vivo at 50 mg/kg ([1]; Table 1, esters) is reported as -65.8%.

In the case of CC(C)(CCCCC(C)(C)C(=O)O)C(=O)O [Table 2 No. 1], the “ΔTGhematic (percent decrease of the hematic triglycerides)” value ([1]; Table 2, acids and alcohols) is reported as “inactive”.

For CC(C)(CCCCCC(C)(C)C(=O)O)C(=O)O [Table 2 No. 3], the “ΔTGhematic (percent decrease of the hematic triglycerides)” value ([1]; Table 2, acids and alcohols) was “inactive”.

Work on CCCCC(C)(CO)CCCCCCC(C)(CO)CCCC (stereo not drawn) [Table 2 No. 12, 2,9-di-n-butyl-2,9-dimethyl-1,10-decanediol] yielded a change in vivo at 50 mg/kg ([1]; Table 2, acids and alcohols) of -58.7%.

For CC(C)(CO)CCCCCC(C)(C)CO [Table 2 No. 4, 2,2,8,8-tetramethyl-1,9-nonanediol], the “ΔTGhematic (percent decrease of the hematic triglycerides)” value ([1]; Table 2, acids and alcohols) was “inactive”.

With CC(C)(CO)CCCCCCC(C)(C)CO [Table 2 No. 6, 2,2,9,9-tetramethyl-1,10-decanediol] the change in vivo at 50 mg/kg ([1]; Table 2, acids and alcohols) was -94%.

Work on CCCCC(C)(CCCCCCC(C)(CCCC)COC(=O)c1cccnc1)COC(=O)c1cccnc1 (stereo not drawn) [Table 1 No. 6, 2,9-di-n-butyl-2,9-dimethyl-1,10-decanediol dinicotinate] yielded a change in vivo at 50 mg/kg ([1]; Table 1, esters) of -85.6%.

For CCCC(C)(CCCCCCC(C)(CCC)C(=O)O)C(=O)O (stereo not drawn) [Table 2 No. 9], the change in vivo at 50 mg/kg ([1]; Table 2, acids and alcohols) was -89.5%.
